According to PubChem BioAssay AID588780 (Sanford-Burnham Center for Chemical Genomics, 2011):
Activity calls are given as the source filed them.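 Rule for the calls: active = compounds whose fitted half-maximal concentration in the cell-protection dose series is at or below a set limit; inactive = the rest.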

system: H9c2 cardiomyocytes, 2-deoxyglucose stress, ATP luminescence, 2 h; experiment: protection of cardiomyocytes from 2-deoxyglucose injury, dose response, cell-based, 2-deoxyglucose stress, uHTS hits (AID 588780)

| Compound | IC50 |
| --- | --- |
| CCN(CC)c1ccc(C2C(C(=O)OC(C)C)C(=O)CC(C)(O)C2C(=O)OC(C)C)cc1 (stereo not drawn) | 18.2 µM |
| NS(=O)(=O)c1cccc(NC(=O)COC(=O)Cc2n[nH]c(=O)c3ccccc23)c1 | > 79 µM (inactive) |
| CC(OC(=O)Cc1n[nH]c(=O)c2ccccc12)C(=O)Nc1cc(Cl)cc(Cl)c1 (stereo not drawn) | 22.7 µM |
| CN(C)C(=O)/C=C\c1cn(-c2ccccc2)nc1-c1ccc2c(c1)OCCO2 | > 79 µM (inactive) |
| Cc1ccccc1NP(=O)(Oc1ccccc1F)Oc1ccccc1F | 24.8 µM |
| COc1ccc(C(CC(=O)N2CCN(c3ccccc3)CC2)c2c(OC)cc(OC)c3ccc(=O)oc23)cc1 (stereo not drawn) | 23.2 µM |
| Cn1c(=O)[nH]c(=O)c2c1nc(Br)n2CC(O)COc1ccc(Cl)cc1 (stereo not drawn) | 15.2 µM |
| CC1(C)Oc2ccc3ccc(=O)oc3c2/C(=C/Nc2ccccn2)C1=O | 10.2 µM |
| Cc1nc(OCc2ccccc2)c2ccccc2n1 | 9.43 µM |
| COc1ccc(N(C(=O)c2cccnc2)S(=O)(=O)c2cccs2)cc1 | > 79 µM (inactive) |
| Cc1ccc(NC(=O)CSC(C)C(=O)OCc2cc(=O)oc3cc(O)ccc23)cc1 (stereo not drawn) | > 79 µM (inactive) |
| COc1cc(-c2cc(NC=O)c3ncc(-c4ccc(C(C)=O)cc4)n3c2)ccc1O | > 79 µM (inactive) |
| COC(=O)N1C(=O)[C@](c2ccccc2)(C2CCCCC2)N1C(=O)OC | 25.4 µM |
| O=c1cc(COc2ncnc3c(Cl)cc(Cl)cc23)nc2sccn12 | > 79 µM (inactive) |
| CCCCCn1c(=O)c(C(=O)NCc2ccccn2)c(O)c2ccccc21 | 7.77 µM |
| COc1cc(/C=C/c2nc3ccccc3c(=O)n2-c2ccccc2O)ccc1O | 20.6 µM |
| Cc1nn(-c2ccccc2)c(N2CCCC2)c1/C=N/NC(=O)c1cc(-c2ccccn2)nc2ccccc12 | > 79 µM (inactive) |
| Cc1ccc(OCC(=O)N/N=C/c2cccc3cccnc23)cc1 | 35.8 µM (inactive) |
| COc1ccc2[nH]c(=O)c(CN(CC3CCCO3)S(=O)(=O)c3ccccc3F)cc2c1 (stereo not drawn) | 15.9 µM |
| COc1ccc2[nH]c(=O)c(CN(CCc3ccccc3)Cc3nnnn3CC3CCCO3)cc2c1 (stereo not drawn) | > 79 µM (inactive) |
| COc1cc(C(=O)Nc2cc3c(cc2N2CCCCC2)n(C)c(=O)n3C)cc(OC)c1OC | 25.4 µM |
| CCOC(=O)c1cnc2ccc(C(=O)OC)cc2c1NCCc1ccc(OC)c(OC)c1 | > 79 µM (inactive) |
| CCOc1ccc(/C=C/C(=O)c2cc(Br)ccc(=O)c2O)cc1 | > 79 µM (inactive) |
| COc1ccc(Cl)cc1NC(=O)CN(C)C(=O)Cn1[nH]c(=O)c2ccccc2c1=O | > 79 µM (inactive) |

| Compound | IC50 |
| --- | --- |
| CC1(c2ccccc2)NC(=O)N(CC(=O)Nc2cccc(/C=C/c3ccccn3)c2)C1=O (stereo not drawn) | 19 µM |
| COc1cc(NS(=O)(=O)c2ccc3ccccc3c2)c2ncccc2c1 | 18.2 µM |
| COc1ccccc1NS(=O)(=O)c1cccc(C(=O)N/N=C/c2c(CO)cnc(C)c2O)c1 | 31.8 µM (inactive) |
| Cc1cc(C)c2c(N)c(C(=O)N/N=C/c3cccnc3)sc2n1 | 19.1 µM |
| O=C(NCCc1ccc(F)cc1)C(=O)Nc1cc2c3c(c1)CC(=O)N3CCC2 | 26.9 µM |
| CC(OC(=O)Cc1n[nH]c(=O)c2ccccc12)C(=O)Nc1ccccc1[N+](=O)[O-] (stereo not drawn) | 49.1 µM (inactive) |
| Cc1ccc(NC(=O)CCc2nc3ccccc3c(=O)[nH]2)cc1S(=O)(=O)N1CCOCC1 | > 79 µM (inactive) |
| COc1cccc(-c2cnc3c(NC=O)cc(-c4cccc(C(=O)N(C)C)c4)cn23)c1 | 12.3 µM |
| O=c1cc(CSc2nc3ccccc3c(=O)[nH]2)c2ccc(O)cc2o1 | > 79 µM (inactive) |
| COc1ccc(S(=O)(=O)N2CCOCC2)cc1NC(=O)c1cccc2c(=O)c(C)c(-c3ccccc3)oc12 | 18 µM |
| Cc1cccc(/N=C/c2c(O)ccc3oc4c(c23)CCCC4)n1 | > 79 µM (inactive) |
| NS(=O)(=O)c1ccc(CCNc2ccn3nc(-c4ccc(OCCN5CCOCC5)cc4)cc3n2)cc1 | 37.3 µM (inactive) |
| CC(OC(=O)Cc1n[nH]c(=O)c2ccccc12)C(=O)Nc1ccc(Cl)cn1 (stereo not drawn) | > 79 µM (inactive) |
| COc1ccc(-n2c(C)c(C(C)=O)c3cc(OC(C)=O)ccc32)cc1 | 25.2 µM |
| COc1nnc(-c2ccc(C)c(S(=O)(=O)NCCO)c2)c2ccccc12 | > 79 µM (inactive) |
| O=c1c2ccccc2nc(/C=C/c2ccc(O)cc2)n1-c1ccc(O)cc1 | > 79 µM (inactive) |
| O=C(Nc1nnc(-c2ccc3c(c2)CCCC3)o1)c1ccccc1 | 23.3 µM |
| O=C(CCc1nc2ccccc2c(=O)[nH]1)NNC(=O)c1ccc(Cl)cc1 | > 79 µM (inactive) |
| Cc1ccc(C(=O)N/N=C\c2ccc(-c3ccc(Cl)cc3)o2)cn1 | 9.3 µM |
| O=C(CSc1ccc2nnc(-c3ccc(F)cc3)n2n1)N1CCCc2ccccc21 | 13.4 µM |
| O=C(C[C@H]1C/C=C\CC[C@H](Cc2ccc(F)cc2)C(=O)O[C@@H](c2ccccc2)CNC1=O)N[C@H](CO)Cc1ccccc1 | > 79 µM (inactive) |
| O=C(O)c1ccc2c(c1)S(=O)(=O)c1cc(N3CCN(c4cnccn4)CC3)ccc1C2=O | > 79 µM (inactive) |
| O=c1c2ccccc2nc(CSc2ncnc3nc[nH]c23)n1-c1ccc(Cl)c(Cl)c1 | > 79 µM (inactive) |
| COc1ccc(COc2cc(-c3cccc(OC)c3)nc3ccc(NC(=O)c4cccnc4)cc23)cc1 | > 79 µM (inactive) |

| Compound | IC50 |
| --- | --- |
| N#Cc1ccccc1OCC(=O)Nc1nc(-c2ccccn2)cs1 | > 79 µM (inactive) |
| CC(OC(=O)Cn1[nH]c(=O)c2ccccc2c1=O)C(=O)Nc1ccc(F)cc1Cl (stereo not drawn) | > 79 µM (inactive) |
| COc1cc(C(=O)Nc2ccc(NC(=O)c3ccco3)nc2)cc(OC)c1OC | 53.5 µM (inactive) |
| CCC(Oc1ccccc1)C(=O)Nc1ccccc1C(=O)N1CCCCC1 (stereo not drawn) | 25.3 µM |
| C=CCC[C@H](Cc1ccc(F)cc1)C(=O)OC[C@@H](Cc1c[nH]c2ccccc12)NC(=O)[C@@H](CC=C)CC(=O)NCCO | > 79 µM (inactive) |
| Cc1cc(-c2nn3c(-c4ccccc4)nnc3s2)c2ccccc2n1 | > 79 µM (inactive) |
| Cc1c(O)c(CN2CCCCC2)cc2c1oc(=O)c1ccccc12 | > 79 µM (inactive) |
| CC(=O)c1cccc(NC(=O)Nc2ccc3c(c2)N(C)C(=O)CS3)c1 | > 79 µM (inactive) |
| Cc1cc(C)c(C)c(S(=O)(=O)N2CCN(C(=O)c3cc(=O)[nH]c4ccccc34)CC2)c1C | > 79 µM (inactive) |
| CC1(C)CC2CC(C)(CN2C(=O)COC(=O)Cn2[nH]c(=O)c3ccccc3c2=O)C1 (stereo not drawn) | > 79 µM (inactive) |
| CCCN1CCN(C(=O)CCc2nnc3ccc(N4CCN(c5cccc(OC)c5)CC4)nn23)CC1 | > 79 µM (inactive) |
| O=C(Cn1nc(C(=O)O)c2ccccc2c1=O)c1c[nH]c2ccccc12 | 36.3 µM (inactive) |
| N#CCCN(C(=O)COC(=O)CCc1nc2ccccc2c(=O)[nH]1)c1ccc(F)cc1 | > 79 µM (inactive) |
| CCNC(=O)/C(C#N)=C/c1c(N(Cc2ccccc2)Cc2ccccc2)nc2ccccn2c1=O | 24.6 µM |
| COc1cc(/C=C/c2nc3ccccc3c(=O)n2-c2ccc(O)cc2)ccc1O | 9.14 µM |
| COc1ccc(-c2cc(C(F)(F)F)n3nc(C(=O)N4CCN(C(=O)c5ccco5)CC4)cc3n2)cc1 | > 79 µM (inactive) |
| Cc1ccc(C(=O)OCC(=O)Nc2sccc2C(N)=O)cc1NC(=O)c1ccco1 | > 79 µM (inactive) |
| COc1c(O)cccc1/C=N/NC(=O)Cn1ccnc1C | > 79 µM (inactive) |
| COc1cc(-c2cc(NC=O)c3ncc(-c4ccccc4)n3c2)cc(OC)c1OC | > 79 µM (inactive) |
| CC(C)(C)N=Cc1c(O)ccc2oc3c(c12)CCCC3 | > 79 µM (inactive) |
| O=C(OCC(=O)N1CCc2ccccc21)c1n[nH]c(=O)c2ccccc12 | > 79 µM (inactive) |
| COc1ccc2oc(C(=O)Nc3ccc(N4CCOCC4)cc3)c(C)c2c1 | > 79 µM (inactive) |
| CNC(=O)c1cccc(NC(=O)c2cc(-c3ccccc3)nc3c2cnn3C(C)C)c1 | > 79 µM (inactive) |
| CCN1CCN(c2nc3c(c(=O)[nH]2)CCCC3)CC1 | > 79 µM (inactive) |

| Compound | IC50 |
| --- | --- |
| CC(=NO)C1CCC2C3CCC4CC(=NO)CCC4(C)C3C(C)(O)CC12C (stereo not drawn) | 14.9 µM |
| CCOc1cc(/C=N/NC(N)=O)cc(Br)c1OCC(=O)Nc1cccc2ccccc12 | > 79 µM (inactive) |
| Cn1nc(-c2ccccc2F)c2cc(C(=O)Nc3ccc4c(c3)OCCO4)sc21 | > 79 µM (inactive) |
| CC1(C)CC2CC(C)(CN2C(=O)COC(=O)c2n[nH]c(=O)c3ccccc23)C1 (stereo not drawn) | > 79 µM (inactive) |
| Cn1c(=O)c2c(nc(NCc3ccc4c(c3)OCO4)n2C)n(C)c1=O | > 79 µM (inactive) |
| Cn1c(=O)n(CCc2ccccc2)c(=O)c2c1nc1n2CCCN1Cc1ccccc1 | 14.1 µM |
| CCOC(=O)C1C(=O)NC(SCC(=O)OC)=C(C#N)C1c1ccccc1OCC (stereo not drawn) | 17 µM |
| O=C1[C@H]2[C@@H](c3ccc(C(F)(F)F)cc3)N[C@]3(CCCN(Cc4ccc(F)cc4)C3=O)[C@H]2C(=O)N1Cc1ccccc1 | > 79 µM (inactive) |
| COc1ccc(NS(=O)(=O)c2ccc3ccccc3c2)c2ncccc12 | > 79 µM (inactive) |
| COCCn1nnnc1CN(CCc1ccccc1)Cc1cc2cc(OC)ccc2[nH]c1=O | > 79 µM (inactive) |
| CC(=O)Nc1cccc(NC(=O)c2cc(-c3cccnc3)nc3ccc(Br)cc23)c1 | > 79 µM (inactive) |
| O=C1COc2ccc(-c3n[nH]c(=O)c4ccccc34)cc2N1 | > 79 µM (inactive) |
| Cc1ccc(-c2[nH]c3cc(C(N)=O)ccc3c(=O)c2O)cc1 | > 79 µM (inactive) |
| Cc1cccc(NC(=O)c2nc[nH]c2C(=O)NCC(=O)OCc2ccccc2)c1 | > 79 µM (inactive) |
| CC1CCCC(C)N1C(=O)COC(=O)c1n[nH]c(=O)c2ccccc12 (stereo not drawn) | > 79 µM (inactive) |
| O=C(CCc1nc2ccccc2c(=O)[nH]1)N1CCN(S(=O)(=O)c2cc(Cl)ccc2Cl)CC1 | > 79 µM (inactive) |
| c1ccc(CN2CCN(CCCNc3ccc4nnc(-c5ccccc5)n4n3)CC2)cc1 | 13.8 µM |
| CC(OC(=O)Cn1[nH]c(=O)c2ccccc2c1=O)C(=O)Nc1ccccc1[N+](=O)[O-] (stereo not drawn) | 27.9 µM |
| CCCCn1nc(NC(=O)c2cccs2)c2cc3cc(OC)ccc3nc21 | > 79 µM (inactive) |
| COc1ccccc1NC(=O)COc1ccc(/C=N/NC(=O)c2cccnc2)cc1 | 14.8 µM |
| O=C(Nc1nc(-c2ccccn2)cs1)c1ccc(-c2ccccc2F)o1 | > 79 µM (inactive) |
